Where “and” joins values, the source holds several entries; their conditions need not be identical. Equal entries are not always repeated. Where two headings read alike, the source gives them in different places.
Tests used:
[1] = PK study in male Sprague-Dawley rats dosed once per day for five days, PO 10 mg/kg, 0.5% HPMC (Example 7); assay type: in vivo; details: male, Sprague-Dawley, rat, in vivo, po, 10 mg/kg, 0.5% HPMC suspension
Procedure: Example 7. PK study of 4ET-03-053 in male Sprague-Dawley rats dosed once per day for five days (P0; 10 mg/kg; 0.5%0HPMC aqueous suspension)
(§1) Table 21 provides plasma and brain concentrations at 24 hr after the last dose of five daily P0 doses of 4ET-03-053.

[2] = Plasma and brain concentrations, brain to plasma ratio 24 hr after last of five 10 mg/kg PO doses (Example 7); assay type: in vivo; details: rats, 24 hr after the last of five 10 mg/kg PO doses; for concentration at 24 h: oral, 10 mg/kg
Description: as §1

[3] = tested on: IL-6 evoked grimace in ICR mice; experiment: IL-6 evoked grimace test; assay type: in vivo; details: PO 1 hr prior to IL-6 (4ET-03-053: 10 mg/kg)
Procedure: Male and female Institute for Cancer Research (ICR) mice were used in these experiments. Mice were bred in house at University of Texas at Dallas and used at between 12 and 24 weeks of age. Mice were habituated to plexiglass boxes of approximately 4×6 inches in size with openable tops. Habituation took place over 2 days with animals exposed to the boxes for at least 30 min. A blinded observer scored baseline grimacing using the method previously described by Mogil and colleagues (Langford D J, et al. “Coding of facial expressions of pain in the laboratory mouse” Nat Methods 7:447-449 (2010)). On test day, mice were given test compounds 1 hr prior to injection of interleukin 6 (human recombinant IL-6, R&D Systems) which was given at a dose of 0.1 ng in saline via an intraplantar injection as described previously (Moy J K, et al. “The MNK-eIF4E Signaling Axis Contributes to Injury-Induced Nociceptive Plasticity and the Development of Chronic Pain” J Neurosci. 37:7481-7499 (2017)). Test compounds were given orally (PO) via a flexible oral gavage canula built for mice. 4ET-03-053 is efficacious in the IL-6 evoked grimace test in mice (PO; 10 mg/kg).
Effect sizes were calculated per mouse by subtracting the baseline grimace score from the sum of the grimace scores for 1 and 3 hr time points.

P-gp (human MDR1, ABCB1) = experiment: MDCK-MDR1 permeability (blood-brain barrier permeability); details: dog
[4] = Sprague-Dawley rats, day five of daily PO 10 mg/kg, mean (n = 3)
[5] = male Sprague-Dawley rats, single PO 10 mg/kg dose, individual animals
[6] = male Sprague-Dawley rats, single PO 10 mg/kg dose, mean (n = 3)

## Cc1cc(Nc2cc(N)ncn2)c(=O)n2c1C(=O)NC21CCC2(CC2)CC1 [4ET-03-053, 6″-((6-Aminopyrimidin-4-yl)amino)-8″-methyl-2″H-dispiro[cyclopropane-1,1′-cyclohexane-4′,3″-imidazo[1,5-a]pyridine]-1″,5″-dione]
[1]; Sprague-Dawley rats, day five of daily PO 10 mg/kg, individual animals
  Tmax: 2 h
[1]; Sprague-Dawley rats, day five of daily PO 10 mg/kg, individual animals, read-out: AUCinf
  AUC(0-inf): 259 µg·h/mL
[1]; Sprague-Dawley rats, day five of daily PO 10 mg/kg, individual animals, read-out: Clast
  concentration at 24 h: 2880 ng/mL
[1]; Sprague-Dawley rats, day five of daily PO 10 mg/kg, individual animals, read-out: Cmax
  Cmax: 24600 ng/mL
[1]; Sprague-Dawley rats, day five of daily PO 10 mg/kg, individual animals, read-out: t1/2 (converted)
  half-life: 6.54 h
[1]; [4]
  AUC(0-t): 282 µg·h/mL
  MRT inf: 9.38 h
  Tmax: 1.67 h
[1]; Sprague-Dawley rats, day five of daily PO 10 mg/kg, mean (n = 3), read-out: AUCinf
  AUC(0-inf): 308 µg·h/mL
[1]; Sprague-Dawley rats, day five of daily PO 10 mg/kg, mean (n = 3), read-out: Clast
  concentration at 24 h: 2670 ng/mL
[1]; Sprague-Dawley rats, day five of daily PO 10 mg/kg, mean (n = 3), read-out: Cmax
  Cmax: 22800 ng/mL
[1]; Sprague-Dawley rats, day five of daily PO 10 mg/kg, mean (n = 3), read-out: t1/2 (converted)
  half-life: 6.82 h
[1]; Sprague-Dawley rats, following five daily PO doses of 10 mg/kg
  bioavailability: 59.9%
[1]; Sprague-Dawley rats, following five daily PO doses of 10 mg/kg, at 24 hr, read-out: last measurable concentration
  concentration at 24 h: 2670 ng/mL
[1]; Sprague-Dawley rats, following five daily PO doses of 10 mg/kg, read-out: peak plasma concentration (Cmax)
  Cmax: 22800 ng/mL
[1]; Sprague-Dawley rats, following five daily PO doses of 10 mg/kg, read-out: terminal half-life (converted)
  half-life: 6.82 h
[1]; Sprague-Dawley rats, following five daily PO doses of 10 mg/kg, read-out: total systemic exposure (AUCinf)
  AUC(0-inf): 308 µg·h/mL
[1]; [5]
  AUC(0-t): 247 µg·h/mL
  MRT inf: 7.18 h
  Tmax: 2 h
[1]; male Sprague-Dawley rats, single PO 10 mg/kg dose, individual animals, read-out: AUCinf
  AUC(0-inf): 255 µg·h/mL
[1]; male Sprague-Dawley rats, single PO 10 mg/kg dose, individual animals, read-out: Clast
  concentration at 24 h: 1330 ng/mL
[1]; male Sprague-Dawley rats, single PO 10 mg/kg dose, individual animals, read-out: Cmax
  Cmax: 25100 ng/mL
[1]; male Sprague-Dawley rats, single PO 10 mg/kg dose, individual animals, read-out: t1/2 (converted)
  half-life: 5.38 h
[1]; [6]
  AUC(0-t): 262 µg·h/mL
  Tmax: 1.67 h
[1]; male Sprague-Dawley rats, single PO 10 mg/kg dose, mean (n = 3), read-out: AUCinf
  AUC(0-inf): 272 µg·h/mL
[1]; male Sprague-Dawley rats, single PO 10 mg/kg dose, mean (n = 3), read-out: Clast
  concentration at 24 h: 1340 ng/mL
[1]; male Sprague-Dawley rats, single PO 10 mg/kg dose, mean (n = 3), read-out: Cmax
  Cmax: 22300 ng/mL
[1]; male Sprague-Dawley rats, single PO 10 mg/kg dose, mean (n = 3), read-out: t1/2 (converted)
  half-life: 5.11 h
[1]; male Sprague-Dawley rats, single PO 10 mg/kg
  bioavailability: 52.8%
[1]; male Sprague-Dawley rats, single PO 10 mg/kg, at 24 hr, read-out: last measurable concentration
  concentration at 24 h: 1340 ng/mL
[1]; male Sprague-Dawley rats, single PO 10 mg/kg, read-out: peak plasma concentration (Cmax)
  Cmax: 22300 ng/mL
[1]; male Sprague-Dawley rats, single PO 10 mg/kg, read-out: terminal half-life (t1/2) (converted)
  half-life: 5.11 h
[2]; male, Sprague-Dawley, rat, brain homogenate, brain homogenate, individual animals (n = 3), read-out: Tissue Homogenate Conc.
  concentration at 24 h: 75.6 ng/mL
[2]; male, Sprague-Dawley, rat, brain homogenate, brain homogenate, mean, read-out: Tissue Homogenate Conc., Mean
  concentration at 24 h: 85.6 ng/mL
[2]; male, Sprague-Dawley, rat, brain, brain, read-out: Mean Tissue
  concentration at 24 h: 342 ng/g
[2]; male, Sprague-Dawley, rat, plasma, plasma, individual animals (n = 3), read-out: Plasma Conc.
  concentration at 24 h: 2390 ng/mL
[2]; male, Sprague-Dawley, rat, plasma, plasma, mean, read-out: Plasma Conc., Mean
  concentration at 24 h: 2670 ng/mL
[2]; male, Sprague-Dawley, rat, brain to plasma, read-out: Mean Tissue/Plasma Conc. Ratio
  Kp at 24 h: 0.128
[2]; brain homogenate, individual animals (n = 3)
  Tissue Homogenate Conc.: 88.2 ng/mL and 93.0 ng/mL
[2]; plasma, individual animals (n = 3)
  Plasma Conc.: 2740 ng/mL and 2880 ng/mL
[3]
  efficacy in the IL-6 evoked grimace test: efficacious
P-gp (human MDR1, ABCB1)
  Papp A→B at 5 uM: 63.3 ×10⁻⁶ cm/s
  Papp B→A at 5 uM: 68.1 ×10⁻⁶ cm/s
  efflux ratio at 5 uM: 1.1

Source: US20250186436A1 (4E Therapeutics, Inc., priority 2021, published 2025)
